Consider 11 molecules from PMC5516711 (Evidence-based Complementary and Alternative Medicine : eCAM, 2017).

Where two headings read alike, the source gives them in different places. A value given as a limit tells only on which side of the number the result lay.

Data set [1] is described as follows: Pharmacokinetic study in rats after oral administration of Naoxintong capsule (NXTC), plasma levels by HPLC-MS/MS. The conditions noted are these: for Tmax / AUC(0-inf) / AUC(0-t) / Cmax / MRT inf / MRT last / half-life: male, Sprague-Dawley, rat, plasma, po; for Detection in rat plasma after oral administration of NXTC: doses of 0.5 g kg^−1 and 1.5 g kg^−1, at the present LLOQ level.
Experimental: (§1) The LC-MS/MS analysis was carried out on an Agilent 1200 system (Agilent Corporation, USA) coupled with an API 3200 triple quadrupole mass spectrometer with a Turbo Ion Spray Ionization (ESI) source (Concord, Ontario, Canada). The Agilent 1200 system consisted of a vacuum degasser (G1322A), a binary pump (G1312A), and a Hip-ALS autosampler (G13678). Chromatographic separation was performed on an Eclipse plus C18 column (4.6 × 100 mm, 1.8 μm) with a security guard C18 column (2.1 mm × 12.5 mm, 5 μm) (Agilent, USA). The mobile phases consisted of acetonitrile (A) and formic acid aqueous solution (B). The linear gradient was 30% A-30% A (0–10 min); 30%–80% A (10–15 min); 80%–95% A (15–20 min); 95%-95% A (20–30 min). Reequilibration time after gradient elution was 5 min. The column temperature was maintained at 25°C and the flow rate was set at 0.300 mL min^−1. ESI-MS spectra were acquired in both negative and positive ion multiple reaction monitoring (MRM) mode. Data collection and peak calculations were performed by Analyst 1.4.2 software (AB MDS Sciex).
(§2) The ISs solution (10 μL) and formic acid (10 μL) were added to plasma samples (100 μL). Acetonitrile (370 μL) was used to precipitate protein. The mixed solution was swirled for 1 min and then centrifuged at 14000 rpm for 10 min. The supernatant fluid was collected and then evaporated to dryness with a stream of N2 gas in a 40°C water bath. The residue was reconstituted in 100 μL methanol, swirled for 1 min. The sample was centrifuged at 14000 rpm for 10 min. 10 μL of the supernatant was injected into the LC-MS/MS system for analysis.
(§3) Rats were fasted for 12 h with free access to water before the experiment. NXTC extracts were orally administrated to ten rats at single time dose (0.5 g kg^−1) and to ten rats at triple doses (1.5 g kg^−1). The blood samples were collected at 5, 10, 15, 30, 45, 60, 90, 120, 240, 480, 720, and 1440 min after oral administration. Blood samples (200 μL) were collected from the vein of the eye sockets into heparinized tubes after the rats were anesthetized with ethyl ether. The samples were immediately centrifuged at 7,000 rpm, 10°C for 10 min. Then the plasma samples obtained were stored at −20°C.
(§4) Some pharmacokinetic parameters were calculated by DAS1.0 software (Drug and Statistics 1.0, Medical College of Wannan, China). An appropriate model was employed to calculate the following parameters: area under the plasma concentration versus time curve from zero to last sampling time (AUC0→24 h) and infinity (AUC0→∞) and mean retention time from zero to last sampling time (MRT0→24 h). […] All data were shown as average value ± standard deviation.

For data set [2] the following is noted: rat, in vivo, po; cited from earlier work.
For data set [3] the following is noted: in vivo.
Experimental: as §1, §2, §3, §4

As a reminder, the Tmax is the time at which the peak concentration occurs. As a reminder, the AUC(0-inf) is the area under the concentration-time curve extrapolated to infinity. Higher therefore signals high exposure. For orientation: AUC(0-t) means exposure summed from dosing to a finite time, without extrapolation to infinity. A higher AUC(0-t) goes with more exposure. One may read the Cmax as the highest concentration seen after dosing. In general, MRT inf refers to a mean duration of stay, worked out from the concentration-time curve. For orientation: MRT last means a mean duration of stay, worked out from the concentration-time curve. One may read the half-life as the time needed for the level to fall by half in the phase considered. High values mean slow loss, low ones fast loss. For `O=C(O)/C=C/c1ccc(O)c(O)c1` [Caffeic acid, caffeic acid], the Tmax in data set [1] is less than 1 h. Further, in data set [1] (0.5 g/kg), the AUC(0-inf) turned out to be 19.6 ± 21.1 ng·h/mL, the AUC(0-t) was determined as 11.7 ± 9.6 ng·h/mL, the highest level (Cmax) was 9.8 ± 4.4 ng/mL and the MRT inf came to 4.02 ± 4.96 h. Also, in data set [1] (0.5 g/kg), the MRT last was determined as 1.33 ± 1.19 h, the Tmax was found to be 0.18 ± 0.03 h and the half-life is 0.83 ± 0.33 h. Moreover, in data set [1] (1.5 g/kg), the AUC(0-inf) was found to be 28.5 ± 20 ng·h/mL, the AUC(0-t) came out at 26 ± 18.6 ng·h/mL, the Cmax was determined as 15.2 ± 3.08 ng/mL and the MRT inf was determined as 2.72 ± 1.82 h. Moreover, in data set [1] (1.5 g/kg), the MRT last is 2.03 ± 1.43 h, the Tmax stood at 0.2 ± 0.04 h and the half-life was 0.7 ± 0.35 h.

Take `COc1cc(/C=C/C(=O)O)ccc1O` [Ferulic acid, ferulic acid]: in data set [2], the “mean Tmax” value is 1.8 min. For the same molecule, in data set [3], the “Detection in rat plasma after oral administration of NXTC” value (“Detection in rat plasma” below) is reported as “could be detected”. For the same molecule, in data set [3] (rat, po), the Cmax was determined as 12.07 ± 4.61 ng/mL and the Tmax result was “less than 1 h”. In data set [3] (rat, po, 0.5 g/kg), the “AUC(0–24 h)” value was found to be 3.20 ± 1.55 ng/mL∗h, the “AUC(0–∞)” value amounted to 4.19 ± 2.30 ng/mL∗h, the C max is 10.93 ± 4.67 ng/mL and the “MRT(0–24 h)” value was 0.28 ± 0.10 h. In data set [3] (rat, po, 0.5 g/kg), the “MRT(0–∞)” value turned out to be 0.48 ± 0.33 h, the “T 1/2” value is listed as 0.20 ± 0.19 h and the T max is recorded as 0.17 ± 0.00 h. Moreover, in data set [3] (rat, po, 1.5 g/kg), the “AUC(0–24 h)” value is listed as 8.33 ± 3.87 ng/mL∗h, the “AUC(0–∞)” value is listed as 14.4 ± 12.8 ng/mL∗h, the C max is on record as 12.07 ± 4.61 ng/mL and the “MRT(0–24 h)” value is recorded as 0.81 ± 0.38 h. Also, in data set [3] (rat, po, 1.5 g/kg), the “MRT(0–∞)” value came out at 3.80 ± 6.11 h, the “T 1/2” value is on record as 0.42 ± 0.15 h and the T max came to 0.19 ± 0.04 h.

In the case of `COc1ccc(-c2coc3cc(O)ccc3c2=O)cc1` [Formononetin, formononetin], in data set [1], the “Detection in rat plasma” value is “could be detected”, the AUC(0-t) is less than 1 ng·h/mL, the Cmax is less than 1 ng/mL and the Tmax was less than 1 h. Also, in data set [1] (0.5 g/kg), the AUC(0-inf) came out at 0.15 ± 0.09 ng·h/mL, the AUC(0-t) amounted to 0.08 ± 0.05 ng·h/mL, the Cmax worked out at 0.11 ± 0.05 ng/mL and the MRT inf worked out at 1.67 ± 1.53 h. Besides, in data set [1] (0.5 g/kg), the MRT last was 0.56 ± 0.23 h, the Tmax amounted to 0.49 ± 0.33 h and the half-life is 2.96 ± 5.61 h. Moreover, in data set [1] (1.5 g/kg), the AUC(0-inf) is 3.06 ± 3.07 ng·h/mL, the AUC(0-t) was found to be 1.47 ± 1.82 ng·h/mL, the Cmax was 0.37 ± 0.32 ng/mL and the MRT inf was found to be 25.9 ± 31.8 h. Moreover, in data set [1] (1.5 g/kg), the MRT last is 5.16 ± 3.68 h, the Tmax worked out at 0.38 ± 0.25 h and the half-life was 1.42 ± 0.69 h.

For `CC(C)(O)[C@@H]1CC[C@](C)([C@H]2[C@@H](O)C[C@@]3(C)[C@@H]4C[C@H](O[C@@H]5O[C@H](CO)[C@@H](O)[C@H](O)[C@H]5O)[C@H]5C(C)(C)[C@@H](O[C@@H]6OC[C@@H](O)[C@H](O)[C@H]6O)CC[C@@]56C[C@@]46CC[C@]23C)O1` [Astragaloside IV, astragaloside IV], the “Detection in rat plasma” value in data set [1] was “not detected”.

As to `CC(C)(O)CC[C@@H](O)[C@](C)(O)[C@H]1CC[C@@]2(O)C3=CC(=O)[C@@H]4C[C@@H](O)[C@@H](O)C[C@]4(C)[C@H]3CC[C@]12C` [Ecdysterone, ecdysterone], the “Detection in rat plasma” value in data set [1] is “not detected”.

For `C[C@@]12C[C@@]3(O)O[C@@H](O1)[C@]1(COC(=O)c4ccccc4)[C@H]3C[C@@]12O[C@@H]1O[C@H](CO)[C@@H](O)[C@H](O)[C@H]1O` [Paeoniflorin, paeoniflorin], the “Detection in rat plasma” value in data set [1] is given as “not detected”.

For `OC[C@H]1O[C@@H](Oc2cc(O)cc(/C=C/c3ccc(O[C@@H]4O[C@H](CO)[C@@H](O)[C@H](O)[C@H]4O)cc3O)c2)[C@H](O)[C@@H](O)[C@@H]1O` [Mulberroside A, mulberroside A], in data set [1], the “Detection in rat plasma” value is given as “not detected”.

`C[C@H]1COC2=C1C(=O)C(=O)c1c2ccc2c1CCCC2(C)C` [Cryptotanshinone, cryptotanshinone]: the “Detection in rat plasma” value in data set [1] is listed as “could be detected”. Further, in data set [1] (0.5 g/kg), the AUC(0-inf) was 4.72 ± 5.99 ng·h/mL, the AUC(0-t) is 1.49 ± 0.76 ng·h/mL, the peak level (Cmax) was 0.61 ± 0.23 ng/mL and the MRT inf is 20.7 ± 27.7 h. Moreover, in data set [1] (0.5 g/kg), the MRT last worked out at 3.06 ± 1.47 h, the Tmax is 0.51 ± 0.4 h and the half-life is 2.93 ± 3.89 h. Moreover, the half-life in data set [1] (1.5 g kg^−1) was 17.8 ± 17.1 h. In data set [1] (1.5 g/kg), this molecule registered an AUC(0-inf) of 55.2 ± 59.8 ng·h/mL, an AUC(0-t) of 24.8 ± 27.9 ng·h/mL, a Cmax of 2.78 ± 2.52 ng/mL and an MRT inf of 19 ± 17.5 h. In data set [1] (1.5 g/kg), the MRT last was determined as 7.37 ± 3.95 h, the Tmax turned out to be 0.6 ± 0.2 h and the half-life was 17.8 ± 17.1 h.

Turning to `Cc1coc2c1C(=O)C(=O)c1c-2ccc2c1CCCC2(C)C` [Tanshinone IIA, tanshinone IIA], the “Detection in rat plasma” value in data set [1] is recorded as “could be detected”. In data set [1] (0.5 g/kg), the AUC(0-inf) was found to be 27.7 ± 36.2 ng·h/mL, the AUC(0-t) came out at 8.15 ± 4.85 ng·h/mL, the Cmax came out at 1.61 ± 1.11 ng/mL and the MRT inf amounted to 26.8 ± 31.5 h. Besides, in data set [1] (0.5 g/kg), the MRT last stood at 5.48 ± 1.66 h, the Tmax came out at 0.54 ± 0.29 h and the half-life was 11.4 ± 15.8 h. In data set [1] (1.5 g/kg), this molecule came in with an AUC(0-inf) of 83 ± 81 ng·h/mL, an AUC(0-t) of 35.4 ± 42.2 ng·h/mL, a Cmax of 4.18 ± 3.34 ng/mL and an MRT inf of 27.2 ± 20.6 h. In addition, in data set [1] (1.5 g/kg), the MRT last is 5.75 ± 3.36 h, the Tmax turned out to be 3.17 ± 3.75 h and the half-life is 13.2 ± 10.4 h.

For `N#C[C@H](O[C@@H]1O[C@H](CO[C@@H]2O[C@H](CO)[C@@H](O)[C@H](O)[C@H]2O)[C@@H](O)[C@H](O)[C@H]1O)c1ccccc1` [Amygdalin, amygdalin], the “Detection in rat plasma” value in data set [1] is recorded as “not detected”.

As for salvianolic acid B, the “Detection in rat plasma” value in data set [1] is reported as “not detected”.
